These results are taken from patent US6355864B1, “Versatile rpL34 promoter elements and use thereof” (Battelle Memorial Institute, priority 1999, dated 2002).

Assay [1] relates to rpL34 promoter. Briefly: Response of rpL34 promoter constructs to wounding and plant hormones in leaf discs of transgenic tobacco. Format: in vivo, Nicotiana tabacum. The following applies: leaf discs of plants with −1500, m178 or Δ147; 1 μM 2,4-D or 5 μM BA in MS medium, 24 hr; versus wounding alone. On the procedure:
Fresh young leaves of independent transgenic tobacco were ground in lysis buffer (50 mM sodium phosphate, pH 7.0. 10 mM EDTA, 0.1% TritonX-100, 0.1% sarkosyl and 10 mM DTT). Tobacco protoplast protein was extracted in the same buffer by sonication on ice twice, 5 seconds each time. […] Approximately 5-10 μg of protein was incubated in the presence of 1 mM 4-methylumbelliferyl β-D-glucuronide in 100 μl of lysis buffer at 37 C. Samples from each reaction were taken at 0, 15, and 30 min intervals and the enzyme reaction was quenched in 0.2 M sodium carbonate (Na2CO3). The flurometer was calibrated with 100, 200, 300, and 400 nM 4-methylumbelliferon in 0.2M sodium carbonate.
Kanamycin resistant T1 seedlings, each containing a unique internally deleted rpL34 promoter, were selected and grown to maturity. Six leaf discs excised from the fourth leaf of each plant by paper punch were randomly pooled and incubated in MS medium with 5 μM BA, 1 μM 2,4-D or no plant hormone (wounding treatment) for 24 hr at room temperature. […] The leaf discs ground immediately after excision in protein extraction buffer served as non-wounded tobacco controls.

The test system of assay [2] is rpL34 promoter. The following applies: previous promoter analyses (Dai et al. 1996); on top of mechanical wounding; cited from earlier work.

On to `c1ccc(CNc2ncnc3nc[nH]c23)cc1` [BA, benzyladenine], for which, in the assay with rpL34 promoter [1], the “induced GUS activity” value is recorded as “induced higher GUS activity than wounding alone”. In the assay with rpL34 promoter [2], the rpL34 promoter activity entry was “further enhanced”.

Turning to `O=C(O)COc1ccc(Cl)cc1Cl` [2,4-D, 2,4-dichlorophenoxyacetic acid], the “induced GUS activity” value with rpL34 promoter [1] is “induced higher GUS activity than wounding alone”. The rpL34 promoter activity result in the assay with rpL34 promoter [2] is recorded as “further enhanced”.
